Active and inactive are the calls of the source.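 Rule for the calls: active = a tumour-causing dose and a tumour site recorded for mice in at least one sex group; inconclusive = only government mouse studies exist and were judged inadequate; inactive = mouse studies exist but none gave tumours.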

For the data set, the system named is mouse carcinogenicity bioassay, TD50 from CPDB. As to the kind of experiment: DSSTox (CPDBAS) Carcinogenic Potency Database Summary Mouse Bioassay Results. Put shortly: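 Values are TD50 carcinogenic potencies from mouse chronic bioassays, taking the most positive result for each sex-species. Sources are published literature and NCI/NTP studies; target sites reflect author-reported positive findings.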

Where [1] appears, read: TargetSites_Mouse_Female: liver.
Where [2] appears, read: TD50_Mouse_Note: no positive results, TargetSites_Mouse_Female: no positive results.
[3] abbreviates: TargetSites_Mouse_Female: no positive results.
The mark [4] stands for this setting: TD50_Mouse_Note: TD50 is harmonic mean of more than one positive test, TargetSites_Mouse_Female: liver.
[5] abbreviates: TD50_Mouse_Note: no positive results.
Setting [6] is: TD50_Mouse_Note: TD50 is harmonic mean of more than one positive test, TargetSites_Mouse_Female: no positive results.

As for `CO[C@H]1/C=C/O[C@@]2(C)Oc3c(C)c(O)c4c(O)c(c(/C=N/N5CCN(C)CC5)c(O)c4c3C2=O)NC(=O)/C(C)=C\C=C\[C@H](C)[C@H](O)[C@@H](C)[C@@H](O)[C@@H](C)[C@H](OC(C)=O)[C@@H]1C`, under setting [1], the Potency was 0.0408 mmol/kg/day. With `O=C/C=C/O`, under setting [1], the Potency was 0.15 mmol/kg/day. As to `CCC[CH2][Sn]([CH2]CCC)([O]C(C)=O)[O]C(C)=O`, under setting [2], the outcome is “inactive; no positive results”. With `CC(=O)NNc1ccccc1`, the Potency (TD50_Mouse_Note: TD50 is harmonic mean of more than one positive test, TargetSites_Mouse_Female: vascular system) is 0.341 mmol/kg/day.

With `c1ccc(Nc2ccc(Nc3ccccc3)cc2)cc1`, the outcome under setting [2] was “inactive; no positive results”. For `Nc1ccc(-c2ccc(N)c(Cl)c2)cc1Cl`, the Potency (TD50_Mouse_Note: TD50 value is overestimated as upper 99% confidence limit from study with 100% tumor incidence but no lifetable, harmoni) is 0.0377 mmol/kg/day.

For the molecule `COc1cc(CNC(=O)CCCC/C=C/C(C)C)ccc1O`, the Potency (TD50_Mouse_Note: TD50 is harmonic mean of more than one positive test, no positive results are statistically significant, TargetSites_Mouse_Female: large intestine) was 0.547 mmol/kg/day. Regarding `O=C1C(Cl)=C(Cl)C(=O)C(Cl)=C1Cl`, the outcome under setting [2] was “inactive; no positive results”.

`CCOP(=S)(OCC)Oc1ccc([N+](=O)[O-])cc1`: the outcome under setting [2] was “inactive; no positive results”.

With `CC/C(=C(\c1ccccc1)c1ccc(OCCN(C)C)cc1)c1ccccc1`, the Potency (TD50_Mouse_Note: TD50 is harmonic mean of more than one positive test, TargetSites_Mouse_Female: ovary) was 0.00779 mmol/kg/day. `CCOc1ccc(NC(C)=O)cc1[N+](=O)[O-]`: the Potency under setting [3] is 10.1 mmol/kg/day. As to `c1cc(OCC2CO2)cc(OCC2CO2)c1` (stereo unspecified), the Potency (TD50_Mouse_Note: TD50 is harmonic mean of more than one positive test, TargetSites_Mouse_Female: stomach) was 0.109 mmol/kg/day. On to `Nc1ccc(-c2ccccc2)cc1`, for which the Potency (TD50_Mouse_Note: TD50 is harmonic mean of more than one positive test, TargetSites_Mouse_Female: liver, urinary bladder) is 0.0124 mmol/kg/day. Take `CC1(C)S[C@@H]2[C@H](NC(=O)COc3ccccc3)C(=O)N2[C@H]1C(=O)O`: under setting [2], the outcome is “inactive; no positive results”. Consider `COc1cc(/C=C/C(=O)O[C@H]2CC[C@]34C[C@]35CC[C@]3(C)[C@@H]([C@H](C)CCC=C(C)C)CC[C@@]3(C)[C@@H]5CC[C@H]4C2(C)C)ccc1O`, for which, under setting [2], the outcome was “inactive; no positive results”. Consider `O=C1c2ccccc2-c2ccc3c4c(ccc1c24)-c1ccccc1C3=O`, for which, under setting [3], the Potency was 32.8 mmol/kg/day. As for `C=CC#N`, the Potency (TD50_Mouse_Note: TD50 is harmonic mean of more than one positive test, TargetSites_Mouse_Female: harderian gland, stomach) is 0.119 mmol/kg/day. Take `CCCNC(=O)NS(=O)(=O)c1ccc(Cl)cc1`: the outcome under setting [2] was “inactive; no positive results”.

Take `ClCC(Cl)(Cl)Cl`: under setting [4], the Potency is 1.08 mmol/kg/day. `CC(C)Oc1ccc(Nc2ccccc2)cc1`: the outcome under setting [2] is “inactive; no positive results”. As for `c1ccc2c(c1)Nc1ccccc1S2`, the outcome under setting [2] was “inactive; no positive results”.

Regarding `CC(Cl)Cl`, under setting [2], the outcome was “inactive; no positive results”. Consider `NN`, for which the Potency (TD50_Mouse_Note: TD50 is harmonic mean of more than one positive test, TargetSites_Mouse_Female: lung) is 0.0914 mmol/kg/day. Take `C[C@]12C=CC(=O)C=C1CC[C@@H]1[C@@H]2C(=O)C[C@@]2(C)[C@H]1CC[C@]2(O)C(=O)CO`: the outcome under setting [2] is “inactive; no positive results”. The same measure, in the same setting: the value for `Oc1cccc2cccnc12.Oc1cccc2cccnc12.[Cu]` was “inactive; no positive results”; that for `Cn1cc(C(=O)[C@@H]2CCc3nc[nH]c3C2)c2ccccc21` was “inactive; no positive results”. Same read-out and setting: the value for `S=C(NC1CCCCC1)NC1CCCCC1` was “inactive; no positive results”; that for `Nc1ccccc1` was “inactive; no positive results”; that for `CCO` was “inactive; no positive results”. As for `Nc1ccc(-c2ccc(F)cc2)cc1`, the Potency under setting [4] was 0.00609 mmol/kg/day. `Cc1cc(=O)[nH]c(=S)[nH]1`: the outcome (TargetSites_Mouse_BothSexes: no positive results) was inactive.

Regarding `CC(=O)C1C(=O)C=C(C)OC1=O` (stereo unspecified), under setting [2], the outcome was “inactive; no positive results”. On the same count and under the same terms, the value for `O=C1C(Cl)=C(Cl)C(=O)c2ccccc21` was “inactive; no positive results”; that for `Oc1cccc(O)c1` was “inactive; no positive results”; that for `c1ccc2cc(Nc3ccc(Nc4ccc5ccccc5c4)cc3)ccc2c1` was “inactive; no positive results”. On the same count and under the same terms, next, `O=C(O)c1ccc([N+](=O)[O-])cc1`: “inactive; no positive results”. In the case of `[Se]`, under setting [5], the outcome was inactive. Consider `O=c1cc[nH]c(=O)[nH]1`, for which the Potency (TD50_Mouse_Note: TD50 is harmonic mean of more than one positive test, greater than ten-fold variation among TD50 values for positive res, TargetSites_Mouse_Female: urinary bladder) was 24.5 mmol/kg/day. In the case of `ClCOCc1ccc(COCCl)cc1`, for the setting “TD50_Mouse_Note: positive test results only by intraperitoneal or intravenous injection, TargetSites_Mouse_Female: peritoneal cavity”, the Potency is 0.0132 mmol/kg/day. For the molecule `NC(=O)c1cnccn1`, the outcome (TD50_Mouse_Note: no positive results, TargetSites_Mouse_Female: NTP bioassay inadequate) was “inactive; no positive results”. For the molecule `O=S(=O)([O-])[O-].[O]=[V+2]`, under setting [2], the outcome was “inactive; no positive results”. On the same count and under the same terms, next, `CCN(Cc1cccc(S(=O)(=O)O)c1)c1ccc(C(=C2C=CC(=[N+](CC)Cc3cccc(S(=O)(=O)[O-])c3)C=C2)c2ccc(S(=O)(=O)O)cc2)cc1`: “inactive; no positive results”. On to `O=Cc1ccco1`, for which the Potency under setting [4] was 2.05 mmol/kg/day. For `CCCN(CCC)S(=O)(=O)c1ccc(C(=O)O)cc1`, the Potency under setting [1] was 1.89 mmol/kg/day. Turning to `Nc1ccc(S(=O)(=O)c2ccc(N)cc2)cc1`, under setting [2], the outcome was “inactive; no positive results”. As for `Cc1nc(N)cc2[nH]c3ccccc3c12`, the Potency (TD50_Mouse_Note: TD50 is harmonic mean of more than one positive test, greater than ten-fold variation among TD50 values for positive res, TargetSites_Mouse_Female: liver) was 0.049 mmol/kg/day. With `CN(C)c1ccc(C(=C2C=CC(=[N+](C)C)C=C2)c2ccc(N(C)C)cc2)cc1`, the Potency (TD50_Mouse_Note: TD50 is harmonic mean of more than one positive test, TargetSites_Mouse_Female: harderian gland, hematopoietic system, liver) is 0.222 mmol/kg/day.

Consider `CC1CCC(C(C)C)C(O)C1` (stereo unspecified), for which, under setting [2], the outcome is “inactive; no positive results”. The same measure, in the same setting: the value for `NC(=O)Cc1cccc2ccccc12` was “inactive; no positive results”. The same measure, in the same setting: next, `N#CC(c1ccccc1)c1ccccc1`: “inactive; no positive results”; `C[C@]12CC[C@H](OS(=O)(=O)O)CC1=CC[C@@H]1[C@@H]2CC[C@]2(C)C(=O)CC[C@@H]12`: “inactive; no positive results”; `CC[C@H]1OC(=O)[C@H](C)[C@@H](O[C@H]2C[C@@](C)(OC)[C@@H](O)[C@H](C)O2)[C@H](C)[C@@H](O[C@@H]2O[C@H](C)C[C@H](N(C)C)[C@H]2O)[C@](C)(O)C[C@@H](C)C(=O)[C@H](C)[C@@H](O)[C@]1(C)O`: “inactive; no positive results”. For the molecule `C=CCc1ccc(OC)cc1`, under setting [1], the Potency is 0.35 mmol/kg/day.

Consider `O=[N+]([O-])c1c(Cl)c(Cl)c(Cl)c(Cl)c1Cl`, for which the Potency under setting [3] was 0.241 mmol/kg/day.

For `O=C1NC(=O)C(c2ccccc2)(c2ccccc2)N1`, under setting [1], the Potency is 0.234 mmol/kg/day. As for `Cc1cc(C(C)(C)C)c(O)c(C(C)(C)C)c1`, under setting [6], the Potency was 2.96 mmol/kg/day.

Regarding `CCCCC/C=N/N(C)C=O`, the Potency (TD50_Mouse_Note: TD50 is harmonic mean of more than one positive test, TargetSites_Mouse_Female: liver, lung) was 0.0149 mmol/kg/day. For `CCCCC(C)(O)C/C=C/[C@H]1[C@H](O)CC(=O)[C@@H]1CCCCCCC(=O)OC` (stereo partly specified), the outcome under setting [2] is “inactive; no positive results”. As for `CCN(Cc1cccc(S(=O)(=O)O)c1)c1ccc(C(=C2C=CC(=[N+](CC)Cc3cccc(S(=O)(=O)[O-])c3)C=C2)c2ccccc2)cc1`, the outcome under setting [2] is “inactive; no positive results”. In the case of `Cc1ncc[nH]1`, the Potency under setting [4] was 9.52 mmol/kg/day. Regarding `O=S1OCC2C(CO1)C1(Cl)C(Cl)=C(Cl)C2(Cl)C1(Cl)Cl` (stereo unspecified), under setting [2], the outcome was “inactive; no positive results”. With `CC(C)OC(=O)Nc1ccccc1`, the outcome under setting [2] is “inactive; no positive results”. Take `CSCCC(N)C(=O)O` (stereo unspecified): under setting [5], the outcome was “inactive; no positive results”. `CCCCCNN`: the Potency (TargetSites_Mouse_Female: lung, vascular system) was 0.0423 mmol/kg/day. Consider `NNCCO`, for which, under setting [6], the Potency was 0.00522 mmol/kg/day.

For `Clc1ccc2c(c1)Oc1ccc(Cl)cc1O2`, under setting [2], the outcome is “inactive; no positive results”. In the case of `[O-]/[N+](=N\O)c1ccccc1`, the Potency (TD50_Mouse_Note: TD50 is harmonic mean of more than one positive test, TargetSites_Mouse_Female: ear Zymbals gland, harderian gland, liver, vascular system) was 3.77 mmol/kg/day. Turning to `Oc1c(Cl)cc(Cl)cc1Sc1cc(Cl)cc(Cl)c1O`, the outcome under setting [2] was “inactive; no positive results”. The same measure, in the same setting: the value for `C[C@@H]1CCC[C@H](C)N1CCCC(O)(c1ccccc1)c1ccccn1` (stereo partly specified) was “inactive; no positive results”. On the same count and under the same terms, next, `Cc1cc(N)ccc1N`: “inactive; no positive results”.

Take `Cc1c2ccccc2c(C)c2c1ccc1ccccc12`: the Potency (TargetSites_Mouse_Female: vascular system) was 0.000328 mmol/kg/day.
